Experiments:
[1] = target: BRD2-BD2 (348–455) (Homo sapiens, UniProt P25440); assay: Isothermal titration calorimetry; type: binding; settings: 15 °C, no DMSO in buffer
[2] = target: BRD2-BD1 (74–194) (Homo sapiens, UniProt P25440); assay: Isothermal titration calorimetry; type: binding; settings: 15 °C, no DMSO in buffer
[3] = system: HEPG2 cells; assay: Non-specific cytotoxicity, HEPG2 control cell line; type: cell-based; settings: control hepatocarcinoma cell line; 3 days exposure
[4] = system: BJ cells; assay: Non-specific cytotoxicity, BJ control cell line; type: cell-based; settings: control immortalized fibroblast cell line; 3 days exposure
[5] = system: HEK293 cells; assay: Non-specific cytotoxicity, HEK293 control cell line; type: cell-based; settings: control embryonic kidney cell line; 3 days exposure

Sequence of BRD2-BD2 (348–455) (P25440 348-455): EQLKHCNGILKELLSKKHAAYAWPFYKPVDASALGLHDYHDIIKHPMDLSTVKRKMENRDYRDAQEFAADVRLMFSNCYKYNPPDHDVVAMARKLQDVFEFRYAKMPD
Sequence of BRD2-BD1 (74–194) (P25440 74-194): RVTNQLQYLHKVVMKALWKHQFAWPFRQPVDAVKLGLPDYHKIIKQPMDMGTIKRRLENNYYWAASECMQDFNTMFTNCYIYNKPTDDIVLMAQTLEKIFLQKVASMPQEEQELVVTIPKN

Cc1sc2c(c1C)C(c1ccc(Cl)cc1)=N[C@@H](CC(=O)OC(C)(C)C)c1nnc(C)n1-2 [Compound 1, (+)-JQ1, reference compound]
ITC ΔH, BRD2 BD2 [1]: -1.47 kcal/mol
ITC −TΔS, BRD2 BD2 [1]: -7.83 kcal/mol
ITC ΔH, BRD2 BD1 [2]: -4.9 kcal/mol
ITC −TΔS, BRD2 BD1 [2]: -4.39 kcal/mol

CC(=O)N1c2ccc(-c3ccco3)cc2[C@H](NC(=O)OC(C)C)C[C@@H]1C [Compound 9, Isopropyl ((2S,4R)-1-acetyl-6-(furan-2-yl)-2-methyl-1,2,3,4-tetrahydroquinolin-4-yl)carbamate]
Cytotoxicity EC50, HEPG2 [3]: did not exhibit cytotoxicity at the highest concentrations tested
Cytotoxicity EC50, BJ [4]: did not exhibit cytotoxicity at the highest concentrations tested
Cytotoxicity EC50, HEK293 [5]: did not exhibit cytotoxicity at the highest concentrations tested
ITC ΔG, BRD2 BD1 [2]: -7.47 kcal/mol
ITC ΔH, BRD2 BD1 [2]: -7.27 kcal/mol
ITC −TΔS, BRD2 BD1 [2]: -0.2 kcal/mol

CC(=O)N1c2ccc(-c3cccs3)cc2[C@H](NC(=O)OC(C)C)C[C@@H]1C [Compound 10, Isopropyl ((2S,4R)-1-acetyl-2-methyl-6-(thiophen-2-yl)-1,2,3,4-tetrahydroquinolin-4-yl)carbamate]
ITC ΔG, BRD2 BD2 [1]: -10.12 kcal/mol
ITC ΔH, BRD2 BD2 [1]: -7.18 kcal/mol
ITC −TΔS, BRD2 BD2 [1]: -2.94 kcal/mol
ITC ΔG, BRD2 BD1 [2]: -9.52 kcal/mol
ITC ΔH, BRD2 BD1 [2]: -8.27 kcal/mol
ITC −TΔS, BRD2 BD1 [2]: -1.25 kcal/mol

CC(=O)N1c2ccc(-c3ccc[nH]3)cc2[C@H](NC(=O)OC(C)C)C[C@@H]1C [Compound 11, Isopropyl ((2S,4R)-1-acetyl-2-methyl-6-(1H-pyrrol-2-yl)-1,2,3,4-tetrahydroquinolin-4-yl)carbamate]
ITC ΔG, BRD2 BD2 [1]: -9.82 kcal/mol
ITC ΔH, BRD2 BD2 [1]: -6.89 kcal/mol
ITC −TΔS, BRD2 BD2 [1]: -2.92 kcal/mol
ITC ΔG, BRD2 BD1 [2]: -9.08 kcal/mol
ITC ΔH, BRD2 BD1 [2]: -6.9 kcal/mol
ITC −TΔS, BRD2 BD1 [2]: -2.18 kcal/mol

CC(=O)N1c2ccc(-c3ccoc3)cc2[C@H](NC(=O)OC(C)C)C[C@@H]1C [Compound 12, Isopropyl ((2S,4R)-1-acetyl-6-(furan-3-yl)-2-methyl-1,2,3,4-tetrahydroquinolin-4-yl)carbamate]
ITC ΔG, BRD2 BD2 [1]: -8.61 kcal/mol
ITC ΔH, BRD2 BD2 [1]: -6.31 kcal/mol
ITC −TΔS, BRD2 BD2 [1]: -2.29 kcal/mol
ITC ΔG, BRD2 BD1 [2]: -8.96 kcal/mol
ITC ΔH, BRD2 BD1 [2]: -9.9 kcal/mol
ITC −TΔS, BRD2 BD1 [2]: 0.94 kcal/mol

CC(=O)N1c2ccc(-c3ccsc3)cc2[C@H](NC(=O)OC(C)C)C[C@@H]1C [Compound 13, Isopropyl ((2S,4R)-1-acetyl-2-methyl-6-(thiophen-3-yl)-1,2,3,4-tetrahydroquinolin-4-yl)carbamate]
ITC ΔG, BRD2 BD2 [1]: -10.25 kcal/mol
ITC ΔH, BRD2 BD2 [1]: -6.92 kcal/mol
ITC −TΔS, BRD2 BD2 [1]: -3.33 kcal/mol
ITC ΔG, BRD2 BD1 [2]: -9.43 kcal/mol
ITC ΔH, BRD2 BD1 [2]: -7.69 kcal/mol
ITC −TΔS, BRD2 BD1 [2]: -1.74 kcal/mol

CC(=O)N1c2ccc(-c3cc[nH]c3)cc2[C@H](NC(=O)OC(C)C)C[C@@H]1C [Compound 14, Isopropyl ((2S,4R)-1-acetyl-2-methyl-6-(1H-pyrrol-3-yl)-1,2,3,4-tetrahydroquinolin-4-yl)carbamate]
ITC ΔG, BRD2 BD2 [1]: -10.15 kcal/mol
ITC ΔH, BRD2 BD2 [1]: -7.01 kcal/mol
ITC −TΔS, BRD2 BD2 [1]: -3.32 kcal/mol
ITC ΔG, BRD2 BD1 [2]: -9.28 kcal/mol
ITC ΔH, BRD2 BD1 [2]: -7.33 kcal/mol
ITC −TΔS, BRD2 BD1 [2]: -1.95 kcal/mol

— publication PMC5733700 (Bioorganic & medicinal chemistry, 2017)
